Assay results as given in patent US20220273628A1, “EFFECTS OF LYSERGIC ACID DIETHYLAMIDE (LSD) AND OF LSD ANALOGS TO ASSIST PSY[…] G[…] DISORDER OR OTHER ANXIETY NOT RELATED TO LIFE-T[…]” (Universitätsspital Basel, priority 2021, published 2022).
Entries after “also recorded” stand apart in the source; their conditions may differ.

How the values were obtained:
[1] = system: patients with anxiety disorder without somatic illness; test: Same phase II study: acute alterations of mind (5D-ASC) and mystical-type effects (MEQ30); assay type: in vivo, human
Method: Each of the four LSD/Placebo sessions lasted 12 hours from 8 AM to 8 PM. Sessions took place in a quiet room at the Ambulatory Study Center of the University Hospital Basel (Basel center) or in the private practice office of Dr. P. Gasser (Solothurn center). At the beginning of the session, current mood and mental state were discussed and a urine drug screen was taken and any AEs since the last visit were recorded. Any open questions or concerns were addressed by the investigator. The participants were advised to lie in a bed or sit comfortably on a chair. Other than going to the bathroom, the participants remained in the treatment room for the entire 12-hour experimental session and were supervised constantly up to 8-12 hours after LSD/placebo administration depending on the participant's response and as needed. The subjective effects of LSD at the dose used in this study were expected to last 8-12 hours (Gasser et al., 2014; Holze et al., 2021; Schmid et al., 2015). […] During the LSD/placebo effect, the participants were instructed to focus their awareness inward. Subjects were encouraged to wear eye shades during the first hours (or the light was dimmed) as well as to listen to music and discussions/talking much with the investigator were discouraged. Subjects were allowed to remain mostly undisturbed with brief physical contacts every two hours when heart rate and blood pressure were measured. At the end of the sessions, 10-12 hours after LSD/placebo administration, the acute subjective peak effects were retrospectively rated by the participants using the 5D-ASC, SCQ, AMRS, and VASs and the experience was discussed. Ten-twelve hours after LSD/placebo administration the participants were allowed to return to their home with company and supervision provided by the partner, a relative, or a friend. […]
The 5 dimensions of altered states of consciousness (5D-ASC) scale is a visual analog scale consisting of 94 items (Dittrich, 1998; Studerus et al., 2010). […] Each item of the scale was scored on a 0-100 mm VAS. […]

[2] = system: patients with anxiety disorder without somatic illness; test: Same phase II study: adverse events; assay type: in vivo, human
Description: Subjects were asked to report any adverse events (AEs) during the sessions or between study sessions at the beginning of the next session/visit and at the end of study (EOS) visit. The investigator rated hallucinogen-specific AEs that occurred during the session using a checklist adapted from (Gasser et al., 2014; Griffiths et al., 2006; Schmid et al., 2015). Peak effects were rated at the end of the session based on the patients description and investigators' observation by the investigator as “not reported”, “mild”, “moderate”, or “severe” for: headache, dizziness, dry mouth, nausea, anxiety, paranoid thinking, emotional distress, emotional lability, blurred vision, chills/feeling cold, impaired balance. Heart rate and blood pressure were measured at 2-hourly intervals (Grob et al., 2011).
AEs were described and recorded on the subject's CRF, regardless of the severity or relationship to the IMP. AEs were rated for severity and the potential relationship to the study interventions was evaluated by the investigator according standard criteria. Subjects with AEs were treated appropriately. Abnormal laboratory values not explained by the patients' disease had to be repeated until normal or until the abnormality caould be explained and the subject's safety was not at risk.

[3] = target: 5-HT2A receptor (Homo sapiens, UniProt P28223); conditions: cited from earlier work
Chain of 5-HT2A receptor (P28223 whole entry): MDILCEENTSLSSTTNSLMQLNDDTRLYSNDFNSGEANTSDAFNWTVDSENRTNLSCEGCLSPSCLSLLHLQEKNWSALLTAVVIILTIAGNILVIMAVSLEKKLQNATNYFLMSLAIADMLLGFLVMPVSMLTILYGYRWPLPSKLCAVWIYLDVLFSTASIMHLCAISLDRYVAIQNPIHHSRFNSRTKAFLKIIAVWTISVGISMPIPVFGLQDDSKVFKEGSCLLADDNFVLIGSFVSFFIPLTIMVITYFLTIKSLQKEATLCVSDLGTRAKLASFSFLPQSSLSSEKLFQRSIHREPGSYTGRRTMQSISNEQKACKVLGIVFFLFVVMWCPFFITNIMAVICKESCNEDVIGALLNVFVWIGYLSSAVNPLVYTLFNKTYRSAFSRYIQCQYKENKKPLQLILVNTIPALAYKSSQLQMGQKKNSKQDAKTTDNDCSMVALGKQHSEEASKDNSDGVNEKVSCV

[4] = system: 5-HT1 receptors; conditions: cited from earlier work
[5] = system: healthy volunteers; conditions: cited from earlier work
[6] = system: amygdala reactivity; conditions: fMRI; cited from earlier work
[7] = system: healthy subjects; conditions: cited from earlier work
[8] = follow-up visits, not including treatment sessions

CCN(CC)C(=O)[C@@H]1C=C2c3cccc4[nH]cc(c34)C[C@H]2N(C)C1 [LSD, lysergic acid diethylamide]
ratings of mystical-type experiences on the MEQ30 questionnaire ([1]; 200 μg vs placebo, similar at first and second session): significantly and strongly increased
alterations in all scales of the 5D-ASC questionnaire ([1]; 200 μg, all p<0.001 vs. placebo, comparable at session 1 and 2): significant and marked alterations
acute effects (5D-ASC) compared with healthy subjects given the same dose ([1]; 200 μg, comparison with Holze et al., 2021): generally greater
tolerability after dose lowered ([2]; 100 μg instead of 200 μg, patient with paranoia SAE): tolerated well
fatigue, total of reported AEs ([2]; all follow-up visits of the period, not including treatment sessions): 9
anxiety at onset of the LSD effect ([2]; during the treatment session): two
headache ([2]; during the treatment session): one
nausea ([2]; during the treatment session): two
strong anxiety/paranoia ([2]; during the treatment session): one
SAE: paranoia during the LSD session (expected reaction to LSD) ([2]; first LSD session, 200 μg): one
common cold, total of reported AEs [2, 8]: 7
depression, total of reported AEs [2, 8]: 3
difficulty concentrating, total of reported AEs [2, 8]: 5
headache, total of reported AEs [2, 8]: 6
nausea, total of reported AEs [2, 8]: 3
vertigo, total of reported AEs [2, 8]: 5
activity at the 5-HT2A receptor [3]: partial 5-HT2A receptor agonist; also recorded: agonists
activity at 5-HT1 receptors [4]: stimulates
optimism and trait openness compared with placebo ([5]; 75 μg intravenously, at two weeks): increased
blood pressure and heart rate ([5]; 40-80 μg intravenously, 10 healthy volunteers): slightly elevated
amygdala reactivity to fearful stimuli [6]: decreased
duration of alterations in waking consciousness ([7]; 200 μg oral, 16 healthy subjects): 12 h
blood pressure, heart rate, body temperature, pupil size, plasma cortisol, prolactin, oxytocin, and epinephrine ([7]; 200 μg oral): significantly increased
time until adverse effects completely subsided ([7]; 200 μg oral): ≤ 72 h
difficulty concentrating, number of subjects of 16 participants ([7]; 200 μg, acute AE): 10
dizziness, number of subjects of 16 participants ([7]; 200 μg, acute AE): 7
headache, number of subjects of 16 participants ([7]; 200 μg, acute AE): 9
nausea, number of subjects of 16 participants ([7]; 200 μg, acute AE): 4
transient moderate anxiety, number of subjects of 16 participants ([7]; 200 μg, acute AE): 4
duration of LSD effects after administration ([7]; 200 μg): up to 12 hours
time of peak LSD effects ([7]; 200 μg): 2 h
